Entries after “also recorded” stand apart in the source; their conditions may differ.
How the values were obtained:
AREc32 cells = test: Cell viability of AREc32 cells (ATP quantification, Cell Titer-Glo); assay type: cell-based; details: 24 h
Experimental: The cell viability, measured by ATP quantification, is expressed as relative percentages of control (untreated) cells. The results are expressed as means of technical triplicates±SD and are representative of four independent experiments.
To determine the Nrf2 activation the samples were tested on AREC32 cells (seeded in 96 well plates) using 10 independent dilutions (1/2, 1/4, 1/6, 1/10, 1/15, 1/20, 1/25, 1/30, 1/40 and 1/50) and incubated for 24 hours at 37° C. in a 5% CO2/air incubator. The luciferase activity and the cell viability (ATP measurements) were determined using the Luciferase and Cell Titer-Glo kits from Promega.
The cell viability was also measured using a cell Titer-Glo kit (ATP quantification).

Nrf2 = Nrf2 reporter assay (AREc32 cell line, luciferase under control of the ARE); assay type: cell-based; details: AREc32 cells, 24 h, dose range 0 to 200 μM (FIG. 3)
Experimental: Activation of Nrf2 was measured using an Nrf2 reporter assay. This assay is based on the AREc32 cell line, from CRX biosciences (Dundee, Scotland), a stably transfected MCF7 (breast adenocarcinoma) cell line that contains a luciferase gene construct under the control of the ARE. Luciferase is an enzyme which digests luciferin and produces […]. Anti-oxidative molecules such as Tert-butylhydroquinone (TBHQ) induce luciferase transcription via the activation of Nrf2 that binds to ARE. Luciferase activity is determined using a luciferase kit form Promega (Madison, Wis.). The luciferase activity is proportional to the activation of Nrf2. […] The luciferase activity and the cell viability (ATP measurements) were determined using the Luciferase and Cell Titer-Glo kits from Promega. For each run the luciferase activities, measured in Relative Light Units (RLU), of all the wells were normalized with the mean of the luciferase activity of the cells only of all the plates. Among all the samples tested the normalization procedure was found not to affect the data and this observation permits the comparison of samples measured in different runs. For each sample the Nrf2 activation was calculated as follows: […] […] The luciferase content per sample allows a semi quantification of the Nrf2 activation by reflecting the amount of the Nrf2 activating molecule. […]

[1] = test system: neuron astrocyte co-cultures; test: Neuron-astrocyte co-culture, oxidative stress induced by hydrogen peroxide, MTT assay; assay type: cell-based, mouse; details: 48 hours pre-treatment, 100 μM hydrogen peroxide 4 hours
Description: The beneficial effect of compounds on cell survival is classically investigated by challenging the cell cultures with neurotoxic insults and measuring the resulting oxidative stress and excitotoxicity over a limited period of time (Aksenova et al., Current Neurovascular Research, 2, 73-89 (2005)). […] The model consists of primary neurons plated on glass coverslips that face astrocytes seeded on the bottom of a culture dish. The two cellular compartments are separated by paraffin beads, but released compounds (e.g., energy substrates and glutathione precursors) can freely diffuse from one compartment to the other through the culture medium. Primary cultures of mouse neurons are grown for 12 days in Neurobasal™ medium on 20 mm diameter glass coverslips. Primary cultures of mouse astrocytes are grown for 21 days in astrocytes culture medium in 35 mm diameter dishes. Two hours before initiation of the co-culture, the astrocyte medium is removed and replaced by a fresh neuronal medium. The co-culture is initiated by putting the glass coverslips bearing neurons in the dishes containing astrocyte culture so that neurons face astrocytes. […] For detection this purple product is solubilised for colorimetric quantification at 560 nm using a spectrophotometer.

[2] = background statement; cited from earlier work

Compound | Doses at which viability of AREc32 cells was not affected (AREc32 cells) | Nrf2 activation (in words) (Nrf2) | Concentration giving the strongest protective effect [1] [µM] | Protection of neurons against oxidative stress (in words) ([1]; all tested concentrations (5 μM to 30 μM) except 10 μM) | Aqueous solubility (in words) [2]
CC(=O)/C=C/C(=O)O [4-oxo-2-pentenoic acid] | lower than 70 μM | activates Nrf2; also recorded: strongly activate Nrf2 in a dose dependent manner | 5 | protects neuronal cells against oxidative stress; also recorded: clear and significant protection | –
COc1cc(/C=C/C(=O)CC(=O)/C=C/c2ccc(O)c(OC)c2)ccc1O [curcumin] | – | – | – | – | very low aqueous solubility
O=c1c(O)c(-c2ccc(O)c(O)c2)oc2cc(O)cc(O)c12 [quercitin] | – | – | – | – | very low aqueous solubility
Oc1ccc(C=Cc2cc(O)cc(O)c2)cc1 [resveratrol] | – | – | – | – | very low aqueous solubility

From US9259404B2 (NESTEC S.A., priority 2012, dated 2016)
